The results in this text go back to US9605241B2, “Induction and stabilization of enzymatic activity in microorganisms” (Georgia State University Research Foundation, Inc., priority 2006, dated 2017).

Assay [1] deals with asparaginase I. Description: Asparaginase I production on supplemented medium. The class given is cell-based. Particulars: asparagine and glutamine added 3.8 mM. On the procedure:
The induction of asparaginase I production in various nitrile hydratase producing microorganisms was evaluated. All strains were grown on YEMEA medium containing 7.5 g/L of urea and 10 ppm cobalt (provided as cobalt chloride) supplemented with asparagine (ASN), glutamine (GLN), or both asparagine and glutamine. The asparagine and glutamine were added 3.8 mM. As a comparative, enzyme production was also evaluated with supplementation was with acrylonitrile (AN), acrylamide (AMD) or acrylonitrile and acrylamide. Growth temperature was in the range of 26° C. to 30° C.

The subject of assay [2] is nitrile hydratase. As to the kind of experiment: Nitrile hydratase induction by inducers (Example 1). Type of assay: cell-based, Rhodococcus sp., strain DAP 96253. The following applies: Table 1 comparison. On the procedure: The induction of nitrile hydratase activity and amidase activity in Rhodococcus sp., strain DAP 96253, was evaluated using multiple types of inducers (1000 ppm). Three different samples were cultured in YEMEA medium containing 10 ppm cobalt and 7.5 g/L urea and supplemented with acrylonitrile, asparagine, or glutamine. The specific nitrile hydratase activity and the specific amidase activity in each sample was evaluated, and the results are provided below in Table 1, with activities provided in units/mg cdw (cell dry weight). One unit of nitrile hydratase activity relates to the ability to convert 1 Arnol of acrylonitrile to its corresponding amide per minute, per milligram of cells (dry weight) at a of pH 7.0 and a temperature of 30° C. One unit of amidase activity relates to the ability to convert […] of acrylamide to its corresponding acid per minute, per milligram of cells (dry weight) pH of 7.0 and a temperature of 30° C.

For assay [3], the system named is asparaginase I. Description: Effect of inducer and media composition on asparaginase I. Type of assay: cell-based. The following applies: Rhodococcus sp. DAP 96253; inducer 1000 ppm. On the procedure: Testing was performed to evaluate the effect on asparaginase I activity based upon the inducer used. In particular, testing was performed using asparagine, glutamine, succinonitrile, and isovaleronitrile as inducers (all added at 1000 ppm each).

Turning to `C=CC#N` [Acrylonitrile, acrylonitrile], the “Asparaginase I Level Based on Growth Medium Supplementation” value in assay [1] (Pseudomonas chloroaphis ATCC 13985, 26 °C) is given as 2 Units/mg cdw; in assay [1] (Rhodococcus rhodochrous DAP 96622 ATCC 55898, 26 °C), 8.2 Units/mg cdw; in assay [1] (Rhodococcus sp. DAP 96253 ATCC 55899, 30 °C), 7.8 Units/mg cdw.
For the compound `NC(=O)C[C@H](N)C(=O)O` [Asparagine, asparagine], in assay [2], the “ability to induce nitrile hydratase activity compared with acrylonitrile” value is “exceeds the ability of acrylonitrile to induce such activity”.
As for `NC(=O)CC[C@H](N)C(=O)O` [Glutamine, glutamine], the “Asparaginase I Level Based on Growth Medium Supplementation” value in assay [1] (Pseudomonas chloroaphis ATCC 43051, 30 °C) was “No”. For the same compound, the “ability to induce nitrile hydratase activity compared with acrylonitrile” value in assay [2] is given as “exceeds the ability of acrylonitrile to induce such activity”. Also, the “ability to induce asparaginase I activity (in words)” value in assay [3] is given as “showed an ability to induce asparaginase I activity”.
Turning to `N#CCCC#N` [Succinonitrile, succinonitrile], the “ability to induce asparaginase I activity (in words)” value in assay [3] is “showed an ability to induce asparaginase I activity”.
